Measured values from publication PMC11811690 (Angewandte Chemie (International Ed. in English), 2024).
In brackets after ≈: the same amount, converted by molar mass. Read-outs that look alike come from different tables or passages of the source.

How the values were obtained:
[1] = system: C. difficile 630; experiment: microbe, parasite or virus in culture; assay type: cell-based, Clostridioides difficile; details: Clostridioides difficile; C. difficile 630, anaerobic, overnight, growth suppressed to OD600 < 0.15; read-out: MIC C. difficile
[2] = system: M. tuberculosis H37Rv poly-g-GFP; experiment: microbe, parasite or virus in culture; assay type: cell-based; details: Mycobacterium tuberculosis, H37RV, 240 h, read-out: IC90 Mtb H37Rv-poly-g-GFP, fluorescence read-out
[3] = concentration for 90 % inhibition of fluorescence as proxy for growth inhibition, 10 days, 37 °C

**Q.** For `CC[C@H]1/C=C(\C)[C@@H](O)C/C=C/C=C(\CN2CCN(c3ccccc3)CC2)C(=O)O[C@H]([C@@H](C)O)C/C=C(C)/C=C(\C)[C@@H]1O[C@@H]1OC(C)(C)[C@@H](OC(=O)C(C)C)[C@H](O)[C@@H]1O` [compound 2], which MIC [1] is on record?
**A.** Its MIC is over 32 µg/mL.

**Q.** What about the IC90 [2] of the same molecule?
**A.** The IC90 was 16 µg/mL (≈ 19.8 µM).

**Q.** How did the IC90 [2] turn out when `CC[C@H]1/C=C(\C)[C@@H](O)C/C=C/C=C(\CN2CCN(c3ccncc3)CC2)C(=O)O[C@H]([C@@H](C)O)C/C=C(C)/C=C(\C)[C@@H]1O[C@@H]1OC(C)(C)[C@@H](OC(=O)C(C)C)[C@H](O)[C@@H]1O` [compound 3] was run?
**A.** Its IC90 is 16 µg/mL (≈ 19.8 µM).

**Q.** How did the IC90 [2] turn out when `CC[C@H]1/C=C(\C)[C@@H](O)C/C=C/C=C(\CN2CCN(CCOc3ncccn3)CC2)C(=O)O[C@H]([C@@H](C)O)C/C=C(C)/C=C(\C)[C@@H]1O[C@@H]1OC(C)(C)[C@@H](OC(=O)C(C)C)[C@H](O)[C@@H]1O` [compound 4] was run?
**A.** The IC90 was over 64 µg/mL.

**Q.** Which MIC [1] does the source give for `CC[C@H]1/C=C(\C)[C@@H](O)C/C=C/C=C(\CN2CCN(Cc3ccc(F)cc3)CC2)C(=O)O[C@H]([C@@H](C)O)C/C=C(C)/C=C(\C)[C@@H]1O[C@@H]1OC(C)(C)[C@@H](OC(=O)C(C)C)[C@H](O)[C@@H]1O` [compound 6] here?
**A.** Its MIC is 16 µg/mL (≈ 19 µM).

**Q.** And the IC90 [2]?
**A.** Its IC90 is 16 µg/mL (≈ 19 µM).

**Q.** How did the MIC [1] turn out when `CC[C@H]1/C=C(\C)[C@@H](O)C/C=C/C=C(\CNc2nc3c(s2)CCCC3)C(=O)O[C@H]([C@@H](C)O)C/C=C(C)/C=C(\C)[C@@H]1O[C@@H]1OC(C)(C)[C@@H](OC(=O)C(C)C)[C@H](O)[C@@H]1O` [compound 11] was run?
**A.** The MIC was 8 to 16 µg/mL (≈ 9.99 to 20 µM).

**Q.** What about the IC90 [2] of the same molecule?
**A.** The IC90 was 16 µg/mL (≈ 20 µM).

**Q.** Which IC90 [2] does the source give for `CC[C@H]1/C=C(\C)[C@@H](O)C/C=C/C=C(\CNc2nc3c(s2)CN(C)CC3)C(=O)O[C@H]([C@@H](C)O)C/C=C(C)/C=C(\C)[C@@H]1O[C@@H]1OC(C)(C)[C@@H](OC(=O)C(C)C)[C@H](O)[C@@H]1O` [compound 12] here?
**A.** Its IC90 is 32 µg/mL (≈ 39.2 µM).

**Q.** What does the source list for `CC[C@H]1/C=C(\C)[C@@H](O)C/C=C/C=C(\CNCc2nc3ccccc3s2)C(=O)O[C@H]([C@@H](C)O)C/C=C(C)/C=C(\C)[C@@H]1O[C@@H]1OC(C)(C)[C@@H](OC(=O)C(C)C)[C@H](O)[C@@H]1O` [compound 14]?
**A.** MIC [1]: > 32 µg/mL; IC90 [2]: 16 µg/mL (≈ 19.7 µM)

**Q.** Which IC90 [2] does the source give for `CC[C@H]1/C=C(\C)[C@@H](O)C/C=C/C=C(\CNCc2cc(-c3ccccc3)no2)C(=O)O[C@H]([C@@H](C)O)C/C=C(C)/C=C(\C)[C@@H]1O[C@@H]1OC(C)(C)[C@@H](OC(=O)C(C)C)[C@H](O)[C@@H]1O` [compound 15] here?
**A.** The IC90 was 16 µg/mL (≈ 19.5 µM).

**Q.** How did the IC90 [2, 3] turn out when `CC[C@H]1/C=C(\C)[C@@H](O)C/C=C/C=C(\CN2CCN(C)CC2)C(=O)O[C@H]([C@@H](C)O)C/C=C(C)/C=C(\C)[C@@H]1O[C@@H]1OC(C)(C)[C@@H](O)[C@H](OC(=O)c2ccoc2)[C@@H]1O` [compound 41] was run?
**A.** The IC90 was over 64 µg/mL.

**Q.** For `CC[C@H]1/C=C(\C)[C@@H](O)C/C=C/C=C(\CN2CCCCC2)C(=O)O[C@H]([C@@H](C)O)C/C=C(C)/C=C(\C)[C@@H]1O[C@@H]1OC(C)(C)[C@@H](O)[C@H](OC(=O)c2ccoc2)[C@@H]1O` [compound 42], which IC90 [2, 3] is on record?
**A.** The IC90 was over 64 µg/mL.

**Q.** For `CC[C@H]1/C=C(\C)[C@@H](O)C/C=C/C=C(\CN2CCN(CCCN(C)C)CC2)C(=O)O[C@H]([C@@H](C)O)C/C=C(C)/C=C(\C)[C@@H]1O[C@@H]1OC(C)(C)[C@@H](O)[C@H](OC(=O)c2ccoc2)[C@@H]1O` [compound 43], which IC90 [2, 3] is on record?
**A.** The IC90 was 32 to 64 µg/mL (≈ 38 to 76 µM).

**Q.** Which IC90 [2, 3] does the source give for `CC[C@H]1/C=C(\C)[C@@H](O)C/C=C/C=C(\CN2CCN(C)CC2)C(=O)O[C@H]([C@@H](C)O)C/C=C(C)/C=C(\C)[C@@H]1O[C@@H]1OC(C)(C)[C@@H](O)[C@H](OC(=O)c2ccn(C)n2)[C@@H]1O` [compound 44] here?
**A.** Its IC90 is over 64 µg/mL.

**Q.** `CC[C@H]1/C=C(\C)[C@@H](O)C/C=C/C=C(\CN2CCN(C)CC2)C(=O)O[C@H]([C@@H](C)O)C/C=C(C)/C=C(\C)[C@@H]1O[C@@H]1OC(C)(C)[C@@H](O)[C@H](OC(=O)c2ccnn2C)[C@@H]1O` [compound 45] was tested. Which IC90 [2, 3] did it give?
**A.** The IC90 was over 64 µg/mL.

**Q.** Which IC90 [2, 3] does the source give for `CC[C@H]1/C=C(\C)[C@@H](O)C/C=C/C=C(\CN2CCN(C)CC2)C(=O)O[C@H]([C@@H](C)O)C/C=C(C)/C=C(\C)[C@@H]1O[C@@H]1OC(C)(C)[C@@H](O)[C@H](OC(=O)c2cnn(C)c2)[C@@H]1O` [compound 46] here?
**A.** The IC90 was over 64 µg/mL.
